Like-named read-outs stand apart in the source and are kept apart here. Where only a bound is given, the exact number is not on record here.

The source of these data is patent US9840507B2, “5,6-dihydro-imidazo[1,2-a]pyrazin-8-ylamine derivatives useful as inhibitors of beta-secretase (BACE)” (Janssen Pharmaceutica, NV, priority 2010, dated 2017).

The target in experiment [1] is T1, recombinant BACE1 protein (Homo sapiens, UniProt P56817).
T1 construct: recombinant BACE1 protein in a final concentration of 1 μg/ml
T1 sequence (P56817 46-501): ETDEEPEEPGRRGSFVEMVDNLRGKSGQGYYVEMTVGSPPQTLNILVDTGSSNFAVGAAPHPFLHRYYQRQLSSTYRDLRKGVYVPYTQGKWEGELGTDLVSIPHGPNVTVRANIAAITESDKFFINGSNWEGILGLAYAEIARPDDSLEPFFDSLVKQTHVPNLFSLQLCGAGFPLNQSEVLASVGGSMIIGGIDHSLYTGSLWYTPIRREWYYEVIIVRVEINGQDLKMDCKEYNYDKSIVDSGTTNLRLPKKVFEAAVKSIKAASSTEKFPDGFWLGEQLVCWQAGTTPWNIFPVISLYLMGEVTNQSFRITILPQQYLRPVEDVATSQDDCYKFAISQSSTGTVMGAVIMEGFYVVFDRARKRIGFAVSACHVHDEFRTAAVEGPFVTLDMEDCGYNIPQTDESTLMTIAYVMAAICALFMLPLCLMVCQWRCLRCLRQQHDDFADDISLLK
The experiment in a line: Biochemical FRET based assay. To be noted: recombinant BACE1 1 μg/ml, 10 μm substrate, 120 minutes, room temperature, pH 5.0; for IC50: read-out: Biochemical FRET based assay pIC50 (converted). The source says:
This assay is a Fluorescence Resonance Energy Transfer Assay (FRET) based assay. The substrate for this assay is an APP derived 13 amino acids peptide that contains the ‘Swedish’ Lys-Met/Asn-Leu mutation of the amyloid precursor protein (APP) β-secretase cleavage site. This substrate also contains two fluorophores: (7-methoxycoumarin-4-yl) acetic acid (Mca) is a fluorescent donor with excitation wavelength at 320 nm and emission at 405 nm and 2,4-Dinitrophenyl (Dnp) is a proprietary quencher acceptor. […] Upon cleavage by BACE1, the fluorophore Mca is separated from the quenching group Dnp, restoring the full fluorescence yield of the donor. The increase in fluorescence is linearly related to the rate of proteolysis (Koike H et al. J. Biochem. 1999, 126, 235-242).
Briefly in a 384-well format recombinant BACE1 protein in a final concentration of 1 μg/ml is incubated for 120 minutes at room temperature with 10 μm substrate in incubation buffer (40 mM Citrate buffer pH 5.0, 0.04% PEG, 4% DMSO) in the absence or presence of compound. Next the amount of proteolysis is directly measured by fluorescence measurement at T=0 and T=120 (excitation at 320 nm and emission at 405 nm).
(§1) LC=Median of the low control values
=Low control: Reaction without enzyme
(§2) HC=Median of the High control values
=High Control: Reaction with enzyme % Effect=100−[(sample−LC)/(HC−LC)*100] % Control=(sample/HC)*100% % Controlmin=(sample−LC)/(HC−LC)*100

Experiment [2] has as its system Aβ42 produced and secreted into the medium of human neuroblastoma SKNBE2 cells. As to the kind of experiment: Cellular αlisa assay in SKNBE2 cells, Aβ42. The class given is cell-based. Particulars: for IC50: Homo sapiens, SKNBE2, 18 h, read-out: Cellular αlisa assay in SKNBE2 cells Aβ42 pIC50 (converted). How it is done: (§3) In two αlisa assays the levels of Aβtotal and Aβ42 produced and secreted into the medium of human neuroblastoma SKNBE2 cells are quantified. The assay is based on the human neuroblastoma SKNBE2 expressing the wild type Amyloid Precursor Protein (hAPP695). The compounds are diluted and added to these cells, incubated for 18 hours and then measurements of Aβ42 and Aβtotal are taken. Aβtotal and Aβ42 are measured by sandwich αlisa. αlisa is a sandwich assay using biotinylated antibody AbN/25 attached to streptavidin coated beads and antibody Ab4G8 or cAb42/26 conjugated acceptor beads for the detection of Aβtotal and Aβ42 respectively. In the presence of Aβtotal or Aβ42, the beads come into close proximity. The excitation of the Donor beads provokes the release of singlet oxygen molecules that triggers a cascade of energy transfer in the Acceptor beads, resulting in light emission. Light emission is measured after 1 hour incubation (excitation at […] and emission at 615 nm).
(§4) A best-fit curve is fitted by a minimum sum of squares method to the plot of % Controlmin versus compound concentration.
as §1
(§5) =Low control: cells preincubated without compound, without biotinylated Ab in the αlisa
as §2
(§6) =High Control: cells preincubated without compound % Effect=100−[(sample−LC)/(HC−LC)*100] % Control=(sample/HC)*100% % Controlmin=(sample−LC)/(HC−LC)*100

For experiment [3], the system named is Aβtotal produced and secreted into the medium of human neuroblastoma SKNBE2 cells. The experiment in a line: Cellular αlisa assay in SKNBE2 cells, Aβtotal. Particulars: for IC50: Homo sapiens, SKNBE2, 18 h, read-out: Cellular αlisa assay in SKNBE2 cells Aβtotal pIC50 (converted). The class given is cell-based. Here is the method: as §3, §4, §1, §5, §2, §6

Setting [4] is: SKNBE2 cells expressing hAPP695, incubated for 18 hours.

Consider `COc1cnc(C(=O)Nc2ccc(F)c([C@]3(C)Cn4cc(C(F)(F)F)nc4C(N)=N3)c2)cn1` [Compound 26], for which the IC50 in experiment [1] was 234 nM; in experiment [2] (setting [4]) it was 85.1 nM; in experiment [3] (setting [4]), 72.4 nM.
Turning to `CC1(c2cccc(NC(=O)c3ccc(Cl)cn3)c2)Cn2ccnc2C(N)=N1` (racemic) [Compound 6, rac-5-chloro-pyridine-2-carboxylic acid [3-(8-amino-6-methyl-5,6-dihydro-imidazo[1,2-a]pyrazin-6-yl)-phenyl]-amide], the IC50 is 331 nM in experiment [1], 70.8 nM in experiment [2] (setting [4]) and 69.2 nM in experiment [3] (setting [4]).
As for `C[C@@]1(c2cc(NC(=O)c3ccc(F)cn3)ccc2F)Cn2c(Cl)cnc2C(N)=N1` [Compound 58], the IC50 in experiment [1] was 75.9 nM; in experiment [2] (setting [4]), 20 nM; in experiment [3] (setting [4]) it was 20 nM.
Take `C[C@@]1(c2cc(NC(=O)c3ccc(F)cn3)ccc2F)Cn2cc(Cl)nc2C(N)=N1` [Compound 53]: the results for the IC50 in experiment [1], in experiment [2] (setting [4]) and in experiment [3] (setting [4]) were 61.7 nM, 36.3 nM and 35.5 nM, respectively.
With `Cc1nc(C(=O)Nc2ccc(F)c([C@]3(C)Cn4cc(C(F)(F)F)nc4C(N)=N3)c2)co1` [Compound 38], the IC50 is 100 nM in experiment [1], 42.7 nM in experiment [2] (setting [4]) and 41.7 nM in experiment [3] (setting [4]).
Consider `Cc1nc(C(=O)Nc2ccc(F)c([C@]3(C)Cn4ccnc4C(N)=N3)c2)co1` [Compound 43], for which the IC50 is 186 nM in experiment [1], 38 nM in experiment [2] (setting [4]) and 42.7 nM in experiment [3] (setting [4]).
On to `COc1ccc(C(=O)Nc2ccc(F)c([C@]3(C)Cn4ccnc4C(N)=N3)c2)nc1` [Compound 17], for which the IC50 was 107 nM in experiment [1], 17.4 nM in experiment [2] (setting [4]) and 16.6 nM in experiment [3] (setting [4]).
Turning to `C[C@@]1(c2cc(NC(=O)c3ccn(C(F)F)n3)ccc2F)Cn2ccnc2C(N)=N1` [Compound 42], the IC50 was 115 nM in experiment [1], 19.1 nM in experiment [2] (setting [4]) and 20 nM in experiment [3] (setting [4]).
For `NC1=NC(c2cc(NC(=O)c3ncc(Cl)cc3F)ccc2F)(C(F)F)Cn2ccnc21` (stereo not drawn) [Compound 33] the same measures were 224 nM, 355 nM and 275 nM.
As for `CC1(c2cc(-c3cncnc3)ccc2F)Cn2ccnc2C(N)=N1` (single isomer, unassigned) [Compound 7], the values for the IC50 in experiment [1], in experiment [2] (setting [4]) and in experiment [3] (setting [4]) were 20000 nM, 2750 nM and 2400 nM, respectively.
On to `C[C@@]1(c2cc(NC(=O)c3ccsn3)ccc2F)Cn2cc(C(F)(F)F)nc2C(N)=N1` [Compound 40], for which the IC50 in experiment [1] was 229 nM; in experiment [2] (setting [4]) it was 87.1 nM; in experiment [3] (setting [4]), 91.2 nM.
With `Cc1nc(C(=O)Nc2ccc(F)c([C@]3(C)Cn4cc(C(F)(F)F)nc4C(N)=N3)c2)c(C)o1` [Compound 41], the IC50 was 178 nM in experiment [1], 120 nM in experiment [2] (setting [4]) and 117 nM in experiment [3] (setting [4]).
Turning to `C[C@@]1(c2cc(NC(=O)c3ccn(C(F)F)n3)ccc2F)Cn2cc(C(F)F)nc2C(N)=N1` [Compound 51], the IC50 in experiment [1] is 162 nM.
Turning to `Cc1nc(C(=O)Nc2ccc(F)c([C@]3(C)Cn4ccnc4C(N)=N3)c2)c(C(F)(F)F)o1` [Compound 44], the IC50 in experiment [1] was 380 nM; in experiment [2] (setting [4]), 95.5 nM; in experiment [3] (setting [4]), 93.3 nM.
As for `C[C@@]1(c2cccc(-c3cncnc3)c2)Cn2ccnc2C(N)=N1` [Compound 4, (R)-6-methyl-6-(3-pyrimidin-5-yl-phenyl)-5,6-dihydro-imidazo[1,2-a]pyrazin-8-ylamine], the “Biochemical FRET based assay pIC50” value in experiment [1] is given as greater than 4.52. For the same compound, the IC50 in experiment [2] (setting [4]) and in experiment [3] (setting [4]) was 7760 nM throughout.
With `C[C@@]1(c2cc(NC(=O)c3ccc(F)cn3)ccc2F)Cn2cc(C#N)nc2C(N)=N1` [Compound 56, (R)—N-{3-[8-amino-2-cyano-6-methyl-5,6-dihydroimidazo[1,2-a]pyrazin-6-yl]-4-fluorophenyl}-5-fluoropyridine-2-carboxamide], the results for the IC50 in experiment [1], in experiment [2] (setting [4]) and in experiment [3] (setting [4]) were 83.2 nM, 20.9 nM and 21.9 nM, respectively.
In the case of `COc1cnc(C(=O)Nc2ccc(F)c([C@]3(C)Cn4c(Cl)cnc4C(N)=N3)c2)cn1` [Compound 57], the figures for the IC50 in experiment [1], in experiment [2] (setting [4]) and in experiment [3] (setting [4]) were 66.1 nM, 13.5 nM and 14.8 nM, respectively.
For `C[C@@]1(c2cc(NC(=O)c3ccc(F)cn3)ccc2F)Cn2c(C#N)cnc2C(N)=N1` [Compound 66, (R)—N-{3-[8-amino-3-cyano-6-methyl-5,6-dihydroimidazo[1,2-a]pyrazin-6-yl]-4-fluorophenyl}-5-fluoropyridine-2-carboxamide], the IC50 in experiment [1] was 63.1 nM.
Regarding `Cc1nc(C(=O)Nc2ccc(F)c([C@]3(C)Cn4cc(C(F)(F)F)nc4C(N)=N3)c2)c(C(F)(F)F)o1` [Compound 39], the IC50 in experiment [1] was 269 nM; in experiment [2] (setting [4]), 158 nM; in experiment [3] (setting [4]), 158 nM.
On to `COc1cnc(C(=O)Nc2ccc(F)c([C@]3(C)Cn4cc(Cl)nc4C(N)=N3)c2)cn1` [Compound 52], for which the results for the IC50 in experiment [1], in experiment [2] (setting [4]) and in experiment [3] (setting [4]) were 97.7 nM, 40.7 nM and 38 nM, respectively.
Take `CC1(c2cc(-c3cncnc3)c(F)cc2F)Cn2ccnc2C(N)=N1` (single isomer, unassigned) [Compound 11]: the results for the IC50 in experiment [1], in experiment [2] (setting [4]) and in experiment [3] (setting [4]) were 16600 nM, 2340 nM and 1950 nM, respectively.
On to `CC1(c2cc(NC(=O)c3ccc(Cl)cn3)ccc2F)Cn2ccnc2C(N)=N1` (single isomer, unassigned) [Compound 8], for which the IC50 was 12.3 nM in experiment [2] (setting [4]) and 11 nM in experiment [3] (setting [4]).
On to `C[C@@]1(c2cccc(-c3cc(Cl)cc(Cl)c3)c2)Cn2ccnc2C(N)=N1` [Compound 5, (R)-6-(3′,5′-dichloro-biphenyl-3-yl)-6-methyl-5,6-dihydro-imidazo[1,2-a]pyrazin-8-ylamine], for which the IC50 in experiment [1] is 14100 nM; in experiment [2], 5890 nM; in experiment [3] it was 5010 nM.
With `NC1=NC(c2cc(NC(=O)c3ccc(F)cn3)ccc2F)(C(F)F)Cn2ccnc21` (stereo not drawn) [Compound 28], in experiment [1], the IC50 was 295 nM. Further, the “Cellular αlisa assay in SKNBE2 cells Aβ42 pIC50” value in experiment [2] (setting [4]) was 6.17. The “Cellular αlisa assay in SKNBE2 cells Aβtotal pIC50” value in experiment [3] (setting [4]) is 6.19.
On to `Cc1nc(C(=O)Nc2ccc(F)c([C@]3(C)Cn4ccnc4C(N)=N3)c2)c(C)o1` [Compound 46], for which the IC50 in experiment [1] was 380 nM; in experiment [2] (setting [4]), 89.1 nM; in experiment [3] (setting [4]), 83.2 nM.
Turning to `C[C@@]1(c2cc(NC(=O)c3ncc(C#N)cc3F)ccc2F)Cn2ccnc2C(N)=N1` [Compound 22], the IC50 in experiment [1] is 95.5 nM; in experiment [2] (setting [4]), 9.55 nM; in experiment [3] (setting [4]) it was 8.51 nM.
With `CCOc1cnc(C(=O)Nc2ccc(F)c([C@]3(C)Cn4ccnc4C(N)=N3)c2)cn1` [Compound 23], the IC50 in experiment [1] is 457 nM; in experiment [2] (setting [4]), 25.1 nM; in experiment [3] (setting [4]) it was 37.2 nM.
Take `CC1(c2cccc(-c3cncnc3)c2)Cn2ccnc2C(N)=N1` (racemic) [Compound 1, rac-6-methyl-6-(3-pyrimidin-5-yl-phenyl)-5,6-dihydro-imidazo[1,2-a]pyrazin-8-ylamine]: the IC50 in experiment [1] is 9770 nM; in experiment [2] (setting [4]), 191 nM; in experiment [3] (setting [4]) it was 174 nM.
Consider `C[C@@]1(c2cc(NC(=O)c3ccn(C(F)F)n3)ccc2F)Cn2cc(C(F)(F)F)nc2C(N)=N1` [Compound 37], for which the IC50 in experiment [2] (setting [4]) is 15.8 nM; in experiment [3] (setting [4]), 16.6 nM.
